Reference: PMC10447463, “Data-mining unveils structure–property–activity correlation of viral infectivity enhancing self-assembling peptides” (Nature Communications, 2023)
Where two headings read alike, the source gives them in different places.

Key:
[1] = test system: HIV-1 infection of TZM-bl cells; assay: HIV-1 infectivity enhancement assay, β-galactosidase luminescence; type: cell-based; conditions: for Log10 Inf. rel. to EF-C: log10 of HIV-1 infection of TZM-bl cells relative to EF-C, Fig S15 source data, asymmetric std dev errors
[2] = type: physicochemical; conditions: STD prep
[3] = Zeta-potential measurement; type: physicochemical; conditions: for Zeta-pot. / mV: zeta potential of peptide, Fig S15 source data
Summary of the method: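 Dissolve peptide from DMSO (10 mg/mL stock) into PBS pH 7.4 to 1 mg/mL. Incubate 1 d, RT. Dilute in 1 mM KCl just before reading. Derive zeta potential from mobility (Smoluchowski).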

[4] = Feb2021, 1.3 µM value relative to virus only (0 µM)
[5] = Feb2021, Log10 of infectivity relative to EF-C
[6] = Feb2021, n-fold enhancement relative to EF-C
[7] = Feb2021, n-fold infectivity relative to EF-C
[8] = Feb2021, unrounded values of the 1.3 µM column
[9] = Feb2021 run, infectivity n-fold relative to virus alone
[10] = Feb2021 run, log10 of infectivity relative to EF-C
[11] = Feb2021 run, n-fold infectivity relative to EF-C
[12] = infectivity class (low / medium / high) of each library peptide, main list in c1-c6, same classes repeated in sub-lists of sequences containing the hydrophobicity/charge patterns P+,H0,P+,H0,P0,H0,P0, P+,H0,P0,H0,P0,H0,P0, P+,H0,P0,H0
[13] = infectivity class (low / medium / high) of the peptide in the sequence-pattern analysis, Fig. S22-A4, class limits not given
[14] = Feb2021, figures match the 1.3 µM column
[15] = Feb2021, infectivity relative to virus only

Sequence	n-fold to virus (Feb2021) [1, 4]	Log10 of Rel to EFC (Feb2021) [1, 5]	Rel-to EFC (Feb-2021) [1, 6]	Rel-to EFC (Feb-2021) [1, 7]	Absolute Infectivity / RLU /s (Feb2021) [1, 8] [RLU /s]	n-fold to virus (Feb2021) [1, 9]	Log10 of Rel to EFC (Feb2021) [1, 10]	Rel-to EFC (Feb-2021) [1, 11]	infectivity [1, 12]	Log10 Inf. rel. to EF-C [1]	TEM: 1= fibrils, 0= aggregates (micelle), 0.5 = aggregates and fibrils, -1 = nothing obersved, STD prep [2]	Zeta category ( +1 = if > 4 mV;-1 = if < -4 mV; 0 = -4mV to 4 mV) [3]	Zeta category ( +1 = if > 4 mV;-1 = if < -4 mV; 0 = -4mV to 4 mV) ([3]; category from zeta potential)	Zeta Pot. / mV ([3]; mean, Std Zeta in next column) [mV]	Zeta Pot. / mV ([3]; mean, Std in separate column) [mV]	Zeta-pot. / mV [3] [mV]	infectivity [1, 13]	Absolute Infectivity / RLU /s (Feb2021) [1, 14] [RLU /s]	n-fold to virus (Feb2021) [1, 15]	Zeta Pot. / mV [3] [mV]
QCKAKAQANMWQ [CK22]	3.018	-1.144	0.07183	0.07183	2767	3.018	-1.144	0.07183	low	-1.144	0.5	-1 (-1 = if < -4 mV)	-1 (-1 = if < -4 mV)	-8.05	-8.05	-8.05				
QCKFKFQF [CK9]	32.23	-0.1152	0.767	0.767	20303.33333	32.23	-0.1152	0.767		-0.1152	1	1 (+1 = if > 4 mV)	1 (+1 = if > 4 mV)	12.2	12.2	12.2	high			
QCKFKFQFNM [CK8]	21.52	-0.2906	0.5121	0.5121	16353.33333	21.52	-0.2906	0.5121	medium	-0.2906	1	1 (+1 = if > 4 mV)	1 (+1 = if > 4 mV)	15.7	15.7	15.7				
QCKIKIQI [CK3]	4.706	-0.9508	0.112	0.112	3577	4.706	-0.9508	0.112	medium	-0.9508	1	1 (+1 = if > 4 mV)	1 (+1 = if > 4 mV)	9.52	9.52	9.52				
QCKIKIQINM [CK2]	16.64	-0.4024	0.3959	0.3959	15250	16.64	-0.4024	0.3959	medium	-0.4024	1	1 (+1 = if > 4 mV)	1 (+1 = if > 4 mV)	11.37	11.37	11.37				
QCKIKQII [CK6]		-2.189	0.006472	0.006472		0.2719	-2.189	0.006472	low	-2.189	1	1 (+1 = if > 4 mV)	1 (+1 = if > 4 mV)	11	11	11		206.7	0.2719	11
QCKIKQIINM [CK5]		-0.4555	0.3503	0.3503		14.72	-0.4555	0.3503	medium	-0.4555	1	1 (+1 = if > 4 mV)	1 (+1 = if > 4 mV)	10.4	10.4	10.4		11186.66667	14.72	10.4
RGDCKIKIQINM [TM45]		-0.6272	0.2359			9.913	-0.6272	0.2359	medium	-0.6272	1	1 (+1 = if > 4 mV)	1 (+1 = if > 4 mV)	11.3	11.3	11.3				
RGDKIKIQI [MG14]		-1.805	0.01566			0.6579	-1.805	0.01566	low	-1.805	1	0 (0 = -4mV to 4 mV)	0 (0 = -4mV to 4 mV)	-0.899	-0.899	-0.899				
RGDKIKIQIC [MG7/CN1]		-0.07993	0.8319			34.95	-0.07993	0.8319		-0.07993	1	1 (+1 = if > 4 mV)	1 (+1 = if > 4 mV)	16.5	16.5	16.5	high			
